Test results: patent publication US4980377A, “1-(aminophenyl)-2-aminopropanone derivatives” (Laboratoire L. Lafon, priority 1984, dated 1990)
“Also recorded” adds a separate entry of the source. Structures can show the parent of a compound that is named as a salt.

Tests used:
mice [1] = assay: Overall behavior and reactivities in mice; type: in vivo, mouse; conditions: dose not stated
Description: (§1) In the neuropsychopharmacological study which follows, a solution of CRL 41 153 in distilled water (pH 1.5) was administered intraperitoneally in a volume of 20 ml/kg to male mice and 5 ml/kg to male rats.
(§2) Groups of three animals are observed before and then 0.25 hour, 0.50 hour, 1 hour, 2 hours, 3 hours and 24 hours after the administration of CRL 41 153.

rats [2] = assay: Overall behavior and reactivities in rats; type: in vivo, rat; conditions: dose not stated
Description: as §1, §2

mice [3] = assay: Interaction with apomorphine in mice; type: in vivo, mouse; conditions: i.p.
Description: Groups of 6 mice receive CRL 41 153 0.5 hour before the subcutaneous injection of 1 or 16 mg/kg of apomorphine.

rats [4] = assay: Interaction with apomorphine in rats; type: in vivo, rat; conditions: i.p.
Description: CRL 41 153 is administered to groups of 6 rats 0.5 hour before the subcutaneous injection of 0.5 mg/kg of apomorphine.

rats [5] = assay: Interaction with amphetamine; type: in vivo, rat; conditions: i.p.
Description: Amphetamine (2 mg/kg) is injected intraperitoneally into groups of 6 rats 30 minutes after the administration of CRL 41 153. […] 4 mg/kg and 16 mg/kg, CRL 41 153 potentiates the intensity and duration of the stereotypies induced by amphetamine.

mice [6] = assay: Interaction with reserpine; type: in vivo, mouse; conditions: i.p.
Description: Four hours after the intraperitoneal injection of 2.5 mg/kg of reserpine, groups of 6 mice receive CRL 41 153.

mice [7] = assay: Interaction with oxotremorine; type: in vivo, mouse; conditions: i.p.
Description: CRL 41 153 is administered to groups of 6 mice 0.5 hour before the intraperitoneal injection of 0.5 mg/kg of oxotremorine.

mice [8] = assay: Four plate test, traction and electric shock; type: in vivo, mouse; conditions: i.p.
Description: The test is performed on groups of 10 mice 30 minutes after the administration of CRL 41 153.

mice [9] = assay: Spontaneous motility; type: in vivo, mouse; conditions: i.p.
Description: 0.5 hour after they have received CRL 41 153, the mice (6 per dose, 12 control animals) are placed in an actimeter, where their motility is recorded for 30 minutes.

mice [10] = assay: Intergroup aggressiveness; type: in vivo, mouse; conditions: i.p.
Description: After they have stayed for 3 weeks in the two halves of a cage divided by an opaque partition, groups of 3 mice receive CRL 41 153. Half an hour later, the two groups from the same cage are brought together by removal of the partition, and the number of fights which occur in 10 minutes is noted.

mice [11] = assay: Motility reduced by habituation to the enclosure; type: in vivo, mouse; conditions: i.p.
Description: After they have stayed In the actimeters for 18 hours, (he mice (6 per dose, 12 control animals) receive CRL 41 153. They are immediately returned to their respective enclosures and, half an hour later, their motility is recorded for 30 minutes.

mice [12] = assay: Motility reduced by hypoxic aggression; type: in vivo, mouse; conditions: i.p.
Description: Half an hour after they have received CRL 41 153, the mice (10 per dose, 20 control animals) are subjected to acute hypobaric anoxia [pressure reduction of 600 mm Hg (i.e. about 8×10^4 Pa) in 90 seconds; release of vacuum in 45 seconds] and are then placed in an actimeter, where their motility is recorded for 10 minutes.

mice [13] = assay: Asphyxiant anoxia (gallamine triiodoethylate); type: in vivo, mouse; conditions: i.p., curarizing agent
Description: Groups of 10 mice receive CRL 41 153 half an hour before the intraperitoneal administration of 32 mg/kg of gallamine triiodoethylate (reference curarizing agent).

mice [14] = assay: Interaction with barbital; type: in vivo, mouse; conditions: i.p., barbital 220 mg/kg
Description: Half an hour after the administration of CRL 41 153, groups of 10 mice receive an intraperitoneal injection of barbital (220 mg/kg).

mice [15] = assay: Behavioral despair; type: in vivo, mouse; conditions: forcibly immersed mice, i.p.
From the text: Half an hour after they have received CRL 41 153, groups of 6 mice are placed in a beaker filled with water to a height of 6 cm. The total period of immobility between the 2nd and 6th minutes following immersion is noted.

dogs = assay: Cardiovascular study in anesthetized dogs; type: in vivo, dog
Description: Two dogs (average weight: 14.1 kg), anesthetized with nembutal, receive CRL 41 194 by intraduodenal administration at successive doses of 0.1 mg/kg, 0.5 mg/kg, 1 mg/kg, 2.5 mg/kg, 5 mg/kg and 10 mg/kg (in solution in physiological solvent).
The blood pressure, the heart rate, the blood flow through the femoral artery, the blood flow through the vertebral artery and the rectal temperature are measured. The coloration of the skin and the coloration of the bile, collected by catheterization of the bile duct after ligature of the cystic duct, are observed.
4 dogs (average weight: 14 kg), anesthetized with nembutal, receive CRL 41 221 by intraduodenal administration at successive doses of 0.1 mg/kg, 0.5 mg/kg, 1 mg/kg, 2.5 mg/kg, 5 mg/kg and 10 mg/kg. The blood pressure, the heart rate, the blood flow through the femoral artery, the blood flow through the vertebral artery and the rectal temperature are measured. The coloration of the skin is observed.

[16] = system: gravid White New Zealand female rabbits; assay: Teratogenicity in gravid White New Zealand rabbits; type: in vivo, rabbit; conditions: day 5 to day 18 of gestation; for Affected foetuses, %: normal limit 1.5%
Summary of the method: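 Fetuses harvested by cesarean on gestation day 29 were scored for number and for any malformation (limb blockade, anury, tail or skull defects, exencephaly).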

[17] = pH of solutions in distilled water; type: physicochemical
Description: The neuropsychopharmacological study was undertaken according to the procedures described above for CRL 41 153, CRL 41 213 being adminstered intraperitoneally, in solution in distilled water, in a volume of 20 ml/kg to male mice and a volume of 5 ml/kg to male rats, and the pH of the injected solution varying with the concentration of CRL 41 213 according to the data given in Table II below.

CNS = assay: Neuropsychopharmacological profile as a whole; type: in vivo, mice and rats; conditions: conclusion of the tests
Description: as §1

immunity = assay: Immunological study (overall); conditions: in vivo; hydrochloride
[18] = Particular toxicity in grouped mice; conditions: mouse, in vivo, ip
Description: The number of dead animals is noted after 1 hour, 2 hours, 3 hours, 4 hours and 24 hours.

[19] = system: nigrostriatal dopaminergic system; assay: Interaction with alpha-methyltyrosine on stereotypies (difference from amphetamine); conditions: α-methyltyrosine (catecholamine synthesis blocked)
[20] = anesthetized dogs, intraduodenal
[21] = dogs, after product, isoprenaline 3 μg/kg
[22] = dogs, after product, norepinephrine 2 μg/kg

For CC(C)NC(C)C(=O)c1ccc(N)c(Cl)c1 (stereo not shown) [CRL 41 221, 1-(4-amino-3-chlorophenyl)-2-isopropylaminopropanone hydrochloride], the “Stereotype movements (summary)” value (mice [1]) was “the presence of stereotype movements in mice and rats”, the “Overall behavior: observed effects (summary)” value (mice [1]; hydrochloride) was “excitation with hyperreactivity in mice and rats; also recorded: mydriasis and salivation in mice and rats” and the “Stereotype movements (summary)” value (rats [2]) was “the presence of stereotype movements in mice and rats”. The “Overall behavior: observed effects (summary)” value (rats [2]; hydrochloride) was “excitation with hyperreactivity in mice and rats; also recorded: mydriasis and salivation in mice and rats”, the “Effect on hypothermia induced by apomorphine” value (mice [3]) was “antagonism of the hypothermia” and the “Effect on stereotypies induced by apomorphine” value (rats [4]) was “potentiation of the stereotypies”. For the same compound, the “Effect on stereotypies induced by amphetamine” value (rats [5]) was “potentiation of the stereotypies”, the “Effect on hypothermia induced by reserpine” value (mice [6]) was “antagonism of the hypothermia” and the “Effect on ptosis induced by reserpine” value (mice [6]) was “a decrease in the ptosis induced by reserpine”. For the same compound, the “Effect on hypothermic action of oxotremorine” value (mice [7]) was “antagonism of the hypothermia”, the “Effect on convulsant effects of electric shock” value (mice [8]) was “a reduction in the convulsant effects of electric shock” and the “Number of punished passes in the four plate test” value (mice [8]) was “a moderate increase in the number of punished passes in the 4 plate test on mice (at a strong dose)”. The Spontaneous motor activity (mice [9]) was “an increase in the spontaneous motor activity of mice”, the “Number of fights / intergroup aggressiveness” value (mice [10]) was “a reduction in the aggressiveness” and the “Motor activity of mice accustomed to their enclosure” value (mice [11]) was “resumption in the motor activity of mice accustomed to their enclosure”. The “Motor recovery of mice after hypobaric hypoxia” value (mice [12]) was “improvement in the motor recovery of mice subjected to acute hypoxia”, the “Time taken for convulsions to occur” value (mice [13]) was “a reduction in the aggressiveness and (he time taken for convulsions and death to occur” and the “Time taken for death to occur” value (mice [13]) was “a reduction in the aggressiveness and (he time taken for convulsions and death to occur”. The “Duration of the sleep induced by barbital” value (mice [14]) was “a reduction in the duration of the sleep induced by barbital”, the “Period of immobility due to despair” value (mice [15]) was “a reduction in the period of immobility of mice which have been forcibly immersed” and the “Effect on hypertension induced by norepinephrine” value (dogs; anesthetized dogs) was “slightly reduced”. The “Effects of isoprenaline on the blood pressure” value (dogs; anesthetized dogs) was “not modified as regards the diastolic blood pressure”, the Rectal temperature (dogs; anesthetized dogs) was “the rectal temperature and skin temperature rise gradually” and the Skin temperature (dogs; anesthetized dogs) was “the rectal temperature and skin temperature rise gradually”. For the same compound, the “Effects of isoprenaline on the heart rate” value (dogs; anesthetized dogs, after accumulated dose of 19.1 mg/kg intraduodenal) was “slightly reduced as regards the heart rate”, the Blood pressure (dogs; [20]) was “A reduction in the diastolic blood pressure is observed at 5 mg/kg and hypotension appears at 10 mg/kg” and the Femoral flow (dogs; [20]) was “tachycardiac effect as from 2.5 mg/kg, that the femoral flow increases substantially as from this same dose”. For the same compound, the Heart rate (dogs; [20]) was “tachycardiac effect as from 2.5 mg/kg”, the Respiration (dogs; [20]) was “the respiration is stimulated” and the Vertebral flow (dogs; [20]) was “the vertebral flow increases at a dose of 0.5 mg/kg”. For the same compound, the “Effect of propanolol or atenolol on the action of the product” value (dogs; anesthetized dogs, hydrochloride) was “The injection of atenolol into 2 dogs reduces the effects of CRL 41 221; also recorded: the injection of propanolol does not increase the β^- effects”, the “Heart rate after isoprenaline” value (dogs; [21]) was 262 beats/minute and the “Heart rate before isoprenaline” value (dogs; [21]) was 212 beats/minute. For the same compound, the “Systolic blood pressure after norepinephrine” value (dogs; [22]) was 266 mm Hg, the “Systolic blood pressure before norepinephrine” value (dogs; [22]) was 158 mm Hg and the “Vasodilator (conclusion)” value (dogs; hydrochloride) was “vasodiating properties; also recorded: consequently a vasodilator”. The “Affected foetuses, number” value ([16]; 5 mg/kg daily) was 1, the “Total foetuses (live)” value ([16]; 5 mg/kg daily) was 91 and the “Affected foetuses, %” value ([16]; 5 mg/kg daily) was 1.11%. For the same compound, the “Affected foetuses, number” value ([16]; 10 mg/kg daily) was 1, the “Total foetuses (live)” value ([16]; 10 mg/kg daily) was 87 and the “Affected foetuses, %” value ([16]; 10 mg/kg daily) was 1.14%. The pH ([17]; 6 g/liter in distilled water) was 5.0, the pH ([17]; 13 g/liter in distilled water) was 4.5 and the pH ([17]; 50 g/liter in distilled water) was 4.0. The pH ([17]; ≤3 g/liter in distilled water) was 5.5, the “Antidepressant effects (overall)” value (CNS) was “antidepressant properties” and the “Stimulant effects (overall)” value (CNS) was “large stimulant component”. For the same compound, the “α-adrenergic stimulant effects (overall)” value (CNS) was “an α-adrenergic stimulation component” and the “Immunological effect (overall)” value (immunity) was “immunostimulant or immunomodulating effects; also recorded: has an immunomodulating effect and increases the cellular immunity”.

For CC(N)Cc1ccccc1 (stereo not shown) [amphetamine, reference compound], the selectivity ratio [18] was roughly 8 and the “Effect of alpha-methyltyrosine on the stereotypies induced by the substance” value [19] was “totally inhibits the stereotypies induced by amphetamine; also recorded: totally inhibited”.
